Results taken from patent US9073821B2, “Hydroxamic acid derivative” (priority 2010, dated 2015).

Biological target: Pseudomonas aeruginosa LpxC enzyme (Pseudomonas aeruginosa (strain ATCC 15692 / DSM 22644 / CIP 104116 / JCM 14847 / LMG 12228 / 1C / PRS 101 / PAO1), UniProt P47205)
Experiment: biochemical
Type: biochemical
Conditions: class symbols A/B/C by IC50; Table 3; read-out: Enzyme inhibitory activity (inhibitory activity on Pseudomonas aeruginosa LpxC enzyme)

| SMILES | IC50 [nM] |
| --- | --- |
| CNC(=O)C(C(=O)NO)N(C)C(=O)c1ccc(C#Cc2cnn(C)c2)cc1 (centres unmarked) [Compound 504, N-hydroxy-N′-methyl-2-[methyl({4-[(1-methyl-1H-pyrazol-4-yl)ethynyl]phenyl}carbonyl)amino]propanediamide] | 10 to 100 |
| CNC(=O)[C@@](C)(C(=O)NO)N(C)C(=O)c1ccc(C#C/C=C/C2CC2COC)cc1 (stereo partly drawn) [Compound 596, (2S)-N-hydroxy-2-[(4-{(3E)-4-[2-(methoxymethyl)cyclopropyl]but-3-en-1-yn-1-yl}benzoyl)(methyl)amino]-N′,2-dimethylpropanediamide] | < 10 |
| CCOC1CN(Cc2ccc(C#Cc3ccc(C(=O)N(C)C(C(=O)NC)C(=O)NO)cc3)c(C(F)(F)F)c2)C1 (centres unmarked) [Compound 574, 2-[{[4-({4-[(3-ethoxyazetidin-1-yl)methyl]-2-(trifluoromethyl)phenyl}ethynyl)phenyl]carbonyl}(methyl)amino]-N-hydroxy-N′-methylpropanediamide] | < 10 |

The remaining lines, values ahead:

| IC50 [nM] | SMILES |
| --- | --- |
| < 10 | CNC(=O)C(C(=O)NO)N(C)C(=O)c1ccc(C#Cc2coc(COC)c2)cc1 (centres unmarked) [Compound 514, N-hydroxy-2-{[(4-{[5-(methoxymethyl)furan-3-yl]ethynyl}phenyl)carbonyl](methyl)amino}-N′-methylpropanediamide] |
| < 10 | CCOC1CN(Cc2ccc(C#Cc3ccc(C(=O)N(C)C(C(=O)NC)C(=O)NO)cc3F)cc2)C1 (centres unmarked) [Compound 581, 2-[{[4-({4-[(3-ethoxyazetidin-1-yl)methyl]phenyl}ethynyl)-3-fluorophenyl]carbonyl}(methyl)amino]-N-hydroxy-N′-methylpropanediamide] |
| 10 to 100 | CNC(=O)C(C(=O)NO)N(C)C(=O)c1ccc(-c2ccc(CCCN3CCCOCC3)cc2)cc1 (centres unmarked) [Compound 502, N-hydroxy-N′-methyl-2-[methyl({4′-[3-(1,4-oxazepan-4-yl)propyl]biphenyl-4-yl}carbonyl)amino]propanediamide] |

Same assay, conditions: inhibitory activity on Pseudomonas aeruginosa LpxC enzyme, class symbols A/B/C; read-out: Enzyme inhibitory activity

| SMILES | IC50 [nM] |
| --- | --- |
| CNC(=O)C(C(=O)NO)N(C)C(=O)c1ccc(-c2cc(F)c(F)c(F)c2)cc1 (centres unmarked) [Compound 220, N-hydroxy-N′-methyl-2-{methyl[(3′,4′,5′-trifluorobiphenyl-4-yl)carbonyl]amino}propanediamide] | 10 to 100 |
| Cn1cc(CNC(=O)C(NC(=O)c2ccc(-c3ccc(OCCO)cc3)cc2)C(=O)NO)cn1 (centres unmarked) [Compound 147, N-hydroxy-2-({[4′-(2-hydroxyethoxy)biphenyl-4-yl]carbonyl}amino)-N′-[(1-methyl-1H-pyrazol-4-yl)methyl]propanediamide] | < 10 |
| CNC(=O)C(C(=O)NO)N(C)C(=O)c1ccc(-c2ccoc2)cc1 (centres unmarked) [Compound 105, 2-{[4-(furan-3-yl)benzoyl](methyl)amino}-N-hydroxy-N′-methylpropanediamide] | > 100 |
| CNC(=O)C(C(=O)NO)N(C)C(=O)c1ccc(-c2ccc(OCC(C)C)cc2)cc1 (centres unmarked) [Compound 214, N-hydroxy-N′-methyl-2-(methyl {[4′-(2-methylpropoxy)biphenyl-4-yl]carbonyl}amino)propanediamide] | < 10 |
| CNC(=O)C(C(=O)NO)N(C)C(=O)c1ccc(-c2ccc(CCN3CCOCC3)cc2)cc1 (centres unmarked) [Compound 236, N-hydroxy-N′-methyl-2-[methyl({4′-[2-(morpholin-4-yl)ethyl]biphenyl-4-yl}carbonyl)amino]propanediamide] | < 10 |
| CNC(=O)C(C(=O)NO)N(C)C(=O)c1ccc(-c2cccc(C)c2)cc1 (centres unmarked) [Compound 29, N-hydroxy-N′-methyl-2-{methyl[(3′-methylbiphenyl-4-yl)carbonyl]amino}propanediamide] | < 10 |
| CNC(=O)C(C(=O)NO)N(C)C(=O)c1ccc(-c2nc3ccccc3o2)cc1 (centres unmarked) [Compound 347, 2-[{[4-(1,3-benzoxazol-2-yl)phenyl]carbonyl}(methyl)amino]-N-hydroxy-N′-methylpropanediamide] | > 100 |
| CCN(C(=O)c1ccc(-c2ccccc2)cc1)C(C(=O)NC)C(=O)NO (centres unmarked) [Compound 159, 2-[(biphenyl-4-ylcarbonyl)(ethyl)amino]-N-hydroxy-N′-methylpropanediamide] | 10 to 100 |
| CNC(=O)C(C(=O)NO)N(C)C(=O)c1ccc(CCc2ccc(NCCO)cc2)cc1 (centres unmarked) [Compound 176, N-hydroxy-2-{[4-(2-{4-[(2-hydroxyethyl)amino]phenyl}ethyl)benzoyl](methyl)amino}-N′-methylpropanediamide] | < 10 |
| CNC(=O)[C@@](C)(C(=O)NO)N(C)C(=O)c1ccc(C#Cc2cnn(C)c2)cc1 [Compound 433, (2S)-N-hydroxy-N′,2-dimethyl-2-[methyl({4-[(1-methyl-1H-pyrazol-4-yl)ethynyl]phenyl}carbonyl)amino]propanediamide] | < 10 |
| CNC(=O)C(C(=O)NO)N(C)C(=O)c1ccc(C#Cc2ccc(CN(C)C)cc2)cc1 (centres unmarked) [Compound 202, 2-{[4-({4-[(dimethylamino)methyl]phenyl}ethynyl)benzoyl](methyl)amino}-N-hydroxy-N′-methylpropanediamide] | 10 to 100 |

Further lines, results first:

| IC50 [nM] | SMILES |
| --- | --- |
| < 10 | CNC(=O)C(C(=O)NO)N(C)C(=O)c1ccc(C#Cc2ccc(CN3CC4(COC4)C3)cc2)cc1 (centres unmarked) [Compound 322, N-hydroxy-N′-methyl-2-{methyl[(4-{[4-(2-oxa-6-azaspiro[3.3]hept-6-ylmethyl)phenyl]ethynyl}phenyl)carbonyl]amino}propanediamide] |
| 10 to 100 | CNC(=O)C(C(=O)NO)N(C)C(=O)c1ccc(-c2ccc(OC)c(OC)c2)cc1 (centres unmarked) [Compound 55, 2-{[(3′,4′-dimethoxybiphenyl-4-yl)carbonyl](methyl)amino}-N-hydroxy-N′-methylpropanediamide] |
| > 100 | CNC(=O)C(C(=O)NO)N(C)C(=O)c1ccc(C#Cc2ccn(C)n2)cc1 (centres unmarked) [Compound 418, N-hydroxy-N′-methyl-2-[methyl({4-[(1-methyl-1H-pyrazol-3-yl)ethynyl]phenyl}carbonyl)amino]propanediamide] |
| 10 to 100 | CNC(=O)C(C(=O)NO)N(C(=O)c1ccc(-c2ccc(OCCO)cc2)cc1)C1CC1 (centres unmarked) [Compound 154, 2-(cyclopropyl {[4′-(2-hydroxyethoxy)biphenyl-4-yl]carbonyl}amino)-N-hydroxy-N′-methylpropanediamide] |
| < 10 | CSCCNC(=O)C(NC(=O)c1ccc(-c2ccc(OCCO)cc2)cc1)C(=O)NO (centres unmarked) [Compound 132, N-hydroxy-2-({[4′-(2-hydroxyethoxy)biphenyl-4-yl]carbonyl}amino)-N′-[2-(methylsulfanyl)ethyl]propanediamide] |
| < 10 | CNC(=O)C(C(=O)NO)N(C)C(=O)c1ccc(-c2ccc3c(c2)OCCO3)cc1 (centres unmarked) [Compound 81, 2-{[4-(2,3-dihydro-1,4-benzodioxin-6-yl)benzoyl](methyl)amino}-N-hydroxy-N′-methylpropanediamide] |
| < 10 | CNC(=O)C(C(=O)NO)N(CCF)C(=O)c1ccc(-c2ccccc2)cc1 (centres unmarked) [Compound 193, 2-[(biphenyl-4-ylcarbonyl)(2-fluoroethyl)amino]-N-hydroxy-N′-methylpropanediamide] |
| > 100 | CNC(=O)C(C(=O)NO)N(C)C(=O)c1ccc(-c2ccc(Cc3nn[nH]n3)cc2)cc1 (centres unmarked) [Compound 60, N-hydroxy-N′-methyl-2-(methyl {[4′-(2H-tetrazol-5-ylmethyl)biphenyl-4-yl]carbonyl}amino)propanediamide] |
| 10 to 100 | CNC(=O)C(C(=O)NO)N(C)C(=O)c1ccc(-c2cccc(NC)c2)cc1 (centres unmarked) [Compound 278, N-hydroxy-N′-methyl-2-(methyl {[3′-(methylamino)biphenyl-4-yl]carbonyl}amino)propanediamide] |
| 10 to 100 | CNC(=O)C(C(=O)NO)N(C)C(=O)c1ccc(-c2ccc(N3CCOCC3)cc2)cc1 (centres unmarked) [Compound 53, N-hydroxy-N′-methyl-2-(methyl {[4′-(morpholin-4-yl)biphenyl-4-yl]carbonyl}amino)propanediamide] |
| < 10 | CNC(=O)C(C(=O)NO)N(C)C(=O)c1ccc(-c2ccc(N3CCCC3)cc2)cc1 (centres unmarked) [Compound 256, N-hydroxy-N′-methyl-2-(methyl {[4′-(pyrrolidin-1-yl)biphenyl-4-yl]carbonyl}amino)propanediamide] |
| > 100 | CNC(=O)C(C(=O)NO)N(C)C(=O)c1ccc(-c2cc(C)ccn2)cc1 (centres unmarked) [Compound 452, N-hydroxy-N′-methyl-2-(methyl {[4-(4-methylpyridin-2-yl)phenyl]carbonyl}amino)propanediamide] |
| 10 to 100 | CNC(=O)C(C(=O)NO)N(C)C(=O)c1ccc(-c2ccc(N3CC(O)C3)cc2)cc1 (centres unmarked) [Compound 244, N-hydroxy-2-[{[4′-(3-hydroxyazetidin-1-yl)biphenyl-4-yl]carbonyl}(methyl)amino]-N′-methylpropanediamide] |
| < 10 | CNC(=O)C(C(=O)NO)N(C)C(=O)c1ccc(-c2ccc3c(c2)OC(C)(C)O3)cc1 (centres unmarked) [Compound 269, 2-{[4-(2,2-dimethyl-1,3-benzodioxol-5-yl)benzoyl](methyl)amino}-N-hydroxy-N′-methylpropanediamide] |
| < 10 | CNC(=O)C(C(=O)NO)N(C)C(=O)c1ccc(-c2ccc(OCC3(C)COC3)cc2)cc1 (centres unmarked) [Compound 95, N-hydroxy-N′-methyl-2-[methyl({4′-[(3-methyloxetan-3-yl)methoxy]biphenyl-4-yl}carbonyl)amino]propanediamide] |
| < 10 | CNC(=O)C(C(=O)NO)N(C)C(=O)c1ccc(-c2ccc3ncsc3c2)cc1 (centres unmarked) [Compound 199, 2-{[4-(1,3-benzothiazol-6-yl)benzoyl](methyl)amino}-N-hydroxy-N′-methylpropanediamide] |
| < 10 | Cn1cnc(CNC(=O)C(NC(=O)c2ccc(-c3ccc(OCCO)cc3)cc2)C(=O)NO)c1 (centres unmarked) [Compound 158, N-hydroxy-2-({[4′-(2-hydroxyethoxy)biphenyl-4-yl]carbonyl}amino)-N′-[(1-methyl-1H-imidazol-4-yl)methyl]propanediamide] |
| < 10 | CNC(=O)C(C)(C(=O)NO)N(C)C(=O)c1ccc(C#Cc2ccccc2)cc1 (centres unmarked) [Compound 345, N-hydroxy-N′,2-dimethyl-2-(methyl {[4-(phenylethynyl)phenyl]carbonyl}amino)propanediamide] |
